Source: BindingDB's records for doi:10.1016/0960-894X(95)00403-G (1995)

Assay: Compound was tested for inhibiting [3H]N-Methyl-scopolamine Binding to Muscarinic acetylcholine receptor M4 in NG 108-15 Cell

With `C[N+]1(C)CCC2(CC1)OC(=O)C(c1ccccc1)(c1ccccc1)O2` the Ki was 11 nM.
